Laboratory results reported in patent US10206908B2, “3-(1H-pyrrolo[3,2-C]pyridin-2-YL)-1H-pyrazolo[3,4-C]pyridines and therapeutic uses thereof” (Samumed, LLC, priority 2015, dated 2019).

Experiments:
Format in all cases: cell-based
[1] = tested on: Wnt activity (Sp5-Luc reporter, SW480 colon carcinoma cells); assay: Screening assay for Wnt activity: Sp5-Luc reporter gene assay in SW480 colon carcinoma cells; conditions: Homo sapiens; for inhibition at 10 µM: SW480, read-out: percent inhibition at 10 μM; for EC50: Sp5-Luc reporter, SW480 cells, overnight incubation
From the text: The screening assay for Wnt activity is described as follows. Reporter cell lines can be generated by stably transducing cancer cell lines (e.g., colon cancer) or primary cells (e.g., IEC-6 intestinal cells) with a lentiviral construct that includes a Wnt-responsive promoter driving expression of the firefly luciferase gene.
SW480 colon carcinoma cells were transduced with a lentiviral vector expressing luciferase with a human Sp5 promoter consisting of a sequence of eight TCF/LEF binding sites. SW480 cells stably expressing the Sp5-Luc reporter gene and a hygromycin resistance gene were selected by treatment with 150 μg/mL of hygromycin for 7 days. These stably transduced SW480 cells were expanded in cell culture and used for all further screening activities. […] For Sp5-Luc reporter gene assays, the cells were plated at 4,000 cells/well in 384-well plates with medium containing 1% fetal bovine serum and incubated overnight at 37° C. and 5% CO2. Following incubation, 20 μl of BrightGlo luminescence reagent (Promega) was added to each well of the 384-well assay plates. The plates were placed on an orbital shaker for 2 min and then luminescence was quantified using the Envision (Perkin Elmer) plate reader. Readings were normalized to DMSO only treated cells, and normalized activities were utilized for EC50 calculations using the dose-response log (inhibitor) vs. response-variable slope (four parameters) nonlinear regression feature available in GraphPad Prism 5.0 (or Dotmatics).

SW480 colon cancer cells = assay: Cell viability assay (CellTiter-Blue) in SW480 colon cancer cells; conditions: Homo sapiens; for EC50: 96 h, SW480 cell viability, four days; for inhibition at 10 µM: SW480, read-out: percent inhibition at 10 μM
Method: Representative compounds were screened using the following assay procedure to assess the effect on cell viability as described below.
Approximately 2×10^3 SW480 colon cancer cells were seeded into each well and allowed to incubate in the presence or absence of compound for four days at 37° C./5% CO2. Eight replicates of DMSO-treated cells served as controls and cells treated with compound were performed in duplicate.
After incubation, 20 μL of CellTiter-Blue (Promega) was added to each well allowed to incubate for approximately 3 hours. This reagent was a buffered solution which contains resazurin, metabolically active cells were able to reduce rezarurin (blue) into resorufin (pink) which was highly fluorescent. This measured fluorescence was used as a readout for cell viability.

[2] = tested on: primary human fibroblasts derived from IPF patients (LL29 cells) treated with TGF-β1; assay: Inhibition of the fibrotic process: αSMA staining in TGF-β1 treated LL29 fibroblasts; conditions: Fibroblast; for EC50: 96 h, % αSMA positive LL29 cells, TGF-β1 20 ng/mL, 4 days
Method: Representative compounds were screened using primary human fibroblasts (derived from IPF patients) treated with TGF-β1 to determine their ability to inhibit the fibrotic process.
LL29 cells are plated at 1,500 cells/well in 80 μL/well F12 medium supplemented with 1% Fetal Bovine Serum. […] Wells treated with TGF-β1 and containing DMSO were used as controls. […] Following incubation for 4 days, SYTOX green nucleic acid stain (Life Technologies [Thermo Fisher Scientific]) was added to the wells at a final concentration of 1 μM and incubated at room temperature for 30 min.

[3] = tested on: primary human mesenchymal stem cells (hMSCs); assay: Induction of chondrogenesis in hMSCs (chondrogenic nodules, Rhodamine B/Nile Red); conditions: 6 days; for EC50: concentration required to induce 50% levels of chondrogenesis vs TGF-β3, read-out: Conc (nM) of 50% TGF-β3 activity; for Emax: relative to TGF-β3 (10 ng/mL) positive control, read-out: Max. Activity as % TGF-β3 activity
From the text: Representative compounds were screened using primary human mesenchymal stem cells (hMSCs) to determine their ability to induce chondrogenesis (process by which cartilage is developed).
Human Mesenchymal Stem Cell Culture: Primary human mesenchymal stem cells (hMSCs) were purchased from Lonza (Walkersville, Md.) and expanded in Mesenchymal Stem Cell Growth Media (Lonza). Cells between passage 3 and 6 were used for the experiments.
Number of nodules in each well was normalized to the average of 3 DMSO treated wells on the same plate using Excel (Microsoft Inc.). The normalized averages (fold change over DMSO) of 3 replicate wells for each compound concentration were calculated. Due to solubility limitations of some of the compounds, curve fitting was incomplete leading to inaccurate EC50 determinations.
Using TGF-β3 as a positive control, the concentration of representative compounds required to induce 50% levels of chondrogenesis is reported. In addition, the maximum activity of each compound and the respective dose that each compound reached maximum chondrogenesis activity is reported.

IL-6 (THP-1 cells) = assay: IL-6 inhibition in LPS-stimulated THP-1 monocytes (HTRF); conditions: Homo sapiens; for EC50: IL-6, THP-1 cells, LPS 500 ng/mL, 22 hours; for inhibition at 10 µM: THP-1, read-out: percent inhibition at 10 μM
Method: Compound Screening: THP-1 cells were cultured in basal media with 1% FBS for 24 hours before the start of the assay. […] THP-1 cells were plated at 5000 cells/well in the 384-well plates and incubated at 37° C. for 2 h. 500 ng/mL of LPS was added after 2 hours and cells were incubated for another 22 hours at 37° C. Plates were spun in a centrifuge for 1 minute at […] and a mixture of anti-IL6 XL665, and anti-IL6 Cryptate diluted in reconstitution buffer (Cisbio Inc.) was added to each well. Following incubation for 3 hrs at room temperature, Homogeneous Time-Resolved Fluorescence (HTRF) was measured using the Envision (Perkin Elmer) at 665 nm and […]. The ratio of fluorescence at 665 nm to 620 nm was used as a readout for IL6 quantification. All samples were processed in duplicate. Readings were normalized to DMSO treated cells and normalized activities were utilized for EC50 calculations using the dose-response log (inhibitor) vs. response-variable slope (four parameters) nonlinear regression feature available in GraphPad Prism 5.0 (or Dotmatics).

| Structure (SMILES) | inhibition at 10 µM [1] | EC50 [1] | EC50 (SW480 colon cancer cells) | inhibition at 10 µM (SW480 colon cancer cells) | EC50 [2] | inhibition at 10 µM ([2]; read-out: percent inhibition at 10 μM) | EC50 [3] | Emax [3] | EC50 (IL-6 (THP-1 cells)) | inhibition at 10 µM (IL-6 (THP-1 cells)) |
| --- | --- | --- | --- | --- | --- | --- | --- | --- | --- | --- |
| CS(=O)(=O)NCc1cc(F)cc(-c2nccc3[nH]c(-c4n[nH]c5cnc(-c6cncc(CNCC7CCCC7)c6)cc45)cc23)c1 [Compound 501, N-(3-(2-(5-(5-(((Cyclopentylmethyl)amino)methyl)pyridin-3-yl)-1H-pyrazolo[3,4-c]pyridin-3-yl)-1H-pyrrolo[3,2-c]pyridin-4-yl)-5-fluorobenzyl)methanesulfonamide] | 49.3% | > 10000 nM | > 10000 nM | 23% | > 10000 nM | 41.7% | 30 nM | 52% | 3420 nM |  |
| O=C(Nc1cncc(-c2cc3c(-c4cc5c(-c6ccccc6F)nccc5[nH]4)n[nH]c3cn2)c1)C1CCC1 [Compound 77, N-(5-(3-(4-(2-Fluorophenyl)-1H-pyrrolo[3,2-c]pyridin-2-yl)-1H-pyrazolo[3,4-c]pyridin-5-yl)pyridin-3-yl)cyclobutanecarboxamide] |  | 1250 nM | 4280 nM |  | 2820 nM |  |  | 44% | 2800 nM |  |
| CCC(=O)Nc1cncc(-c2cc3c(-c4cc5c(-c6cccc(F)c6)nccc5[nH]4)n[nH]c3cn2)c1 [Compound 1, N-(5-(3-(4-(3-Fluorophenyl)-1H-pyrrolo[3,2-c]pyridin-2-yl)-1H-pyrazolo[3,4-c]pyridin-5-yl)pyridin-3-yl)propionamide] |  | 305 nM | 931 nM |  | 235 nM |  | 30 nM | 51% | 733 nM |  |
| c1ccc(CNCc2cncc(-c3cc4c(-c5cc6c(-c7ccncc7)nccc6[nH]5)n[nH]c4cn3)c2)cc1 [Compound 136, N-Benzyl-1-(5-(3-(4-(pyridin-4-yl)-1H-pyrrolo[3,2-c]pyridin-2-yl)-1H-pyrazolo[3,4-c]pyridin-5-yl)pyridin-3-yl)methanamine] | 50.4% | > 10000 nM | > 10000 nM | 23% | 560 nM |  | 900 nM | 67% | > 10000 nM | 0% |
| Cc1ccncc1-c1cc2c(-c3cc4cnccc4[nH]3)n[nH]c2cn1 [Compound 257, 5-(4-Methylpyridin-3-yl)-3-(1H-pyrrolo[3,2-c]pyridin-2-yl)-1H-pyrazolo[3,4-c]pyridine] |  | 389 nM | 798 nM |  | 376 nM |  | 10 nM | 61% | 944 nM |  |
| CCCCC(=O)Nc1cncc(-c2cc3c(-c4cc5cnccc5[nH]4)n[nH]c3cn2)c1 [Compound 271, N-(5-(3-(1H-Pyrrolo[3,2-c]pyridin-2-yl)-1H-pyrazolo[3,4-c]pyridin-5-yl)pyridin-3-yl)pentanamide] |  | 3880 nM | > 10000 nM | 26.2% | 4690 nM |  |  | 50% | 4610 nM |  |
| c1cncc(-c2cc3c(-c4cc5cnccc5[nH]4)n[nH]c3cn2)c1 [Compound 256, 5-(Pyridin-3-yl)-3-(1H-pyrrolo[3,2-c]pyridin-2-yl)-1H-pyrazolo[3,4-c]pyridine] |  | 133 nM | 628 nM |  | 25 nM |  | 30 nM | 62% | 362 nM |  |
| O=C(Nc1cncc(-c2cc3c(-c4cc5cnccc5[nH]4)n[nH]c3cn2)c1)C1CCCCC1 [Compound 275, N-(5-(3-(1H-Pyrrolo[3,2-c]pyridin-2-yl)-1H-pyrazolo[3,4-c]pyridin-5-yl)pyridin-3-yl)cyclohexanecarboxamide] |  | 1620 nM | 5200 nM |  | 1880 nM |  | 30 nM | 59% | 2690 nM |  |
| CC(C)(C)CC(=O)Nc1cncc(-c2cc3c(-c4cc5c(-c6ccccc6F)nccc5[nH]4)n[nH]c3cn2)c1 [Compound 72, N-(5-(3-(4-(2-fluorophenyl)-1H-pyrrolo[3,2-c]pyridin-2-yl)-1H-pyrazolo[3,4-c]pyridin-5-yl)pyridin-3-yl)-3,3-dimethylbutanamide] |  | 1030 nM | 1280 nM |  | 932 nM |  | 30 nM | 54% | 1090 nM |  |
| Fc1cccc(-c2nccc3[nH]c(-c4n[nH]c5cnc(-c6cccnc6)cc45)cc23)c1 [Compound 4, 3-(4-(3-Fluorophenyl)-1H-pyrrolo[3,2-c]pyridin-2-yl)-5-(pyridin-3-yl)-1H-pyrazolo[3,4-c]pyridine] |  | 500 nM | 867 nM |  | 20 nM |  | 300 nM | 114% | 649 nM |  |
| CS(=O)(=O)NCc1cc(F)cc(-c2nccc3[nH]c(-c4n[nH]c5cnc(-c6cncc(OCc7ccccc7)c6)cc45)cc23)c1 [Compound 774, N-(3-(2-(5-(5-(Benzyloxy)pyridin-3-yl)-1H-pyrazolo[3,4-c]pyridin-3-yl)-1H-pyrrolo[3,2-c]pyridin-4-yl)-5-fluorobenzyl)methanesulfonamide] |  | 1510 nM | 2450 nM |  | 363 nM |  | 300 nM | 115% | 1100 nM |  |
| CCC(=O)Nc1cncc(-c2cc3c(-c4cc5c(N6CCN(C)CC6)nccc5[nH]4)n[nH]c3cn2)c1 [Compound 225, N-(5-(3-(4-(4-Methylpiperazin-1-yl)-1H-pyrrolo[3,2-c]pyridin-2-yl)-1H-pyrazolo[3,4-c]pyridin-5-yl)pyridin-3-yl)propionamide] | 52.4% | > 10000 nM | > 10000 nM | 7.9% | 5300 nM |  | 30 nM | 70% | 743 nM |  |
| CC(C)C(=O)Nc1cncc(-c2cc3c(-c4cc5cnccc5[nH]4)n[nH]c3cn2)c1 [Compound 261, N-(5-(3-(1H-Pyrrolo[3,2-c]pyridin-2-yl)-1H-pyrazolo[3,4-c]pyridin-5-yl)pyridin-3-yl)isobutyramide] |  | 399 nM | 2250 nM |  | 472 nM |  | 30 nM | 61% | 623 nM |  |
| O=C(Nc1cncc(-c2cc3c(-c4cc5cnccc5[nH]4)n[nH]c3cn2)c1)c1ccccc1 [Compound 263, N-(5-(3-(1H-Pyrrolo[3,2-c]pyridin-2-yl)-1H-pyrazolo[3,4-c]pyridin-5-yl)pyridin-3-yl)benzamide] |  | 580 nM | > 10000 nM | 8.5% | 97 nM |  | 10 nM | 152% | > 10000 nM | 10.3% |
